Reference: US20230321186A1, “Mucin Glycans as Antifungal Agents” (Massachusetts Institute of Technology, priority 2022, published 2023)

Legend:
Type in all cases: cell-based, Candida albicans
[1] = test system: C. albicans; assay: Filamentation assay (hyphal growth, phase-contrast images); conditions: 0.4%, RPMI, 37° C., 8 h, vs monosaccharide pool and medium alone
Procedure: Hyphal growth of C. albicans was induced by diluting cells to OD600=0.05 into prewarmed hyphae-inducing medium as indicated and incubating at 37° C. (200 rpm) in a glass-bottom, 96-well plate. Cells were grown in hyphae-inducing medium for several hours, as described in BRIEF DESCRIPTION OF THE DRAWINGS. Images were acquired with a confocal laser scanning microscope (Zeiss, Oberkochen, Germany; LSM 800) equipped with a ×63/1.4 NA oil-immersion or a 25× objective. Images were analyzed using Zeiss ZEN v.2.1. Representative micrographs are shown.

[2] = test system: C. albicans SC5314; assay: RT-qPCR analysis of C. albicans gene expression; conditions: for suppression of filamentation-associated genes: broader range of genes, six synthetic glycans, FIG. 9E; for effect of the added sugar on the gene regulatory activity (YWP1, ECE1) of the unmodified Core: compared with Core 1 or Core 2; for ECE1 transcription / YWP1 transcription: modified Core structures, FIGS. 9C-9D; for YWP1 expression: 0.1% (w/v) synthetic glycan
Procedure: For RNA extraction from C. albicans grown in the presence or absence of mucin glycans, 100 μL of RPMI or 0.1% w/v MUC5AC glycans in RPMI were inoculated with a 1:50 dilution of an overnight culture of strain SC5314 and incubated at 37° C. for the time indicated. Total RNA was extracted with the MasterPure RNA Purification Kit (Lucigen, Middleton, WI) and residual DNA was removed using the Turbo DNA-free kit (Ambion, Austin, TX). The integrity of the total RNA was assessed using an Agilent 2100 Bioanalyzer (Agilent Technologies, Santa Clara, CA). rRNA was removed using the Ribo-Zero® rRNA Removal Kit (Yeast; Epicentre).
A list of the primers used in this study is provided in Table 1. qPCR with reverse transcription (RT-qPCR) was performed using a two-step method. First-strand cDNA was synthesized from total RNA using the […] First Strand cDNA Synthesis kit (New England Biolabs, Ipswich, MA). The cDNA was used as template for RT-qPCR using a SYBR PowerUp Master Mix kit (Applied Biosystems, Life Technologies) on a Roche LightCycler 480 real-time PCR system. The ACT1 and 18S rRNA genes were used as endogenous controls as specified. […] Changes in gene expression were calculated based on mean change in qPCR cycle threshold (ΔCt) using the ΔΔCt method (fold change=[…]).

[3] = test system: C. albicans SC5314; assay: RT-qPCR analysis of C. albicans gene expression; conditions: for ECE1 expression: 0.1% and 0.4%; for YWP1 expression on concentration increase: increase to 0.4% (w/v)
[4] = test system: C. albicans; assay: C. albicans growth (growth curves); conditions: 0.1% (w/v)
Procedure: Strains were maintained on yeast extract peptone dextrose (YPD) agar (2% Bacto peptone, 2% glucose, 1% yeast extract, 2% agar) and grown at 30° C. Single colonies were inoculated into YPD broth and grown with shaking overnight at 30° C. prior to each experiment. Experiments were performed with Gibco RPMI 1640 medium (Life Technologies, Carlsbad, CA; #31800-089) buffered with 165 mM 3-(N-morpholino)propanesulfonic acid (MOPS) and supplemented with 0.2% NaHCO3 and 2% glucose; YPD medium with 10% fetal bovine serum; GlcNAc medium (0.5% N-acetylglucosamine, 0.5% peptone, 0.3% KH2PO4); Spider medium (1% nutrient broth, 1% D-mannitol, 2 g K2HPO4, 50 mg/mL arginine, 10 mg/mL histidine, and 50 mg/mL tryptophan); or Lee's medium^45. Growth curves were performed in Synthetic Defined (SD)+0.004% (w/v) L-Arginine+0.0025% (w/v) L-Leucine media with 2% glucose.

| SMILES | filamentation, synthetic glycan structures [1] | suppression of filamentation-associated genes [2] | effect of the added sugar on the gene regulatory activity (YWP1, ECE1) of the unmodified Core [2] | ECE1 transcription [2] | YWP1 transcription [2] | ECE1 expression [3] | YWP1 expression on concentration increase [3] | toxic effects, as measured by C. albicans growth [4] | YWP1 expression [2] |
| --- | --- | --- | --- | --- | --- | --- | --- | --- | --- |
| CO[C@H]1O[C@H](CO)[C@H](O)[C@H](O[C@@H]2O[C@H](CO)[C@H](O)[C@H](O)[C@H]2O[C@@H]2O[C@@H](C)[C@@H](O)[C@@H](O)[C@@H]2O)[C@H]1NC(C)=O [Core 1+fucose, Methyl α-L-fucopyranosyl-(1→2)-β-D-galactopyranosyl-(1→3)-2-acetamido-2-deoxy-α-D-galactopyranoside] | most potently blocked filamentation | strongest suppression | did not measurably alter | downregulating ECE1 | transcriptionally upregulated YWP1 |  |  |  |  |
| CO[C@H]1O[C@H](CO)[C@H](O)[C@H](O[C@@H]2O[C@H](CO)[C@H](O)[C@H](O[C@]3(C(=O)[O-])C[C@H](O)[C@@H](NC(C)=O)[C@H]([C@H](O)[C@H](O)CO)O3)[C@H]2O)[C@H]1NC(C)=O.[Na+] [Core 1+sialic acid, Methyl 3-O-(sodium 5-acetamido-3,5-dideoxy-D-glycero-α-D-galacto-2-nonulopyranosylonate)-β-D-galactopyranosyl-(1→3)-2-acetamido-2-deoxy-α-D-galactopyranoside] | less effective at suppressing filamentation | weakest effect | dampened the gene regulatory response of Core 1 | downregulating ECE1 | transcriptionally upregulated YWP1 |  |  |  |  |
| CO[C@H]1O[C@H](CO)[C@H](O)[C@H](O[C@@H]2O[C@H](CO)[C@H](O)[C@H](O)[C@H]2O)[C@H]1NC(C)=O [Core 1, Methyl β-D-galactopyranosyl-(1→3)-2-acetamido-2-deoxy-α-D-galactopyranoside] | most potently blocked filamentation | strongest suppression |  |  |  | suppressed ECE1 expression at 0.1% and 0.4%, albeit less strongly than the mucin glycan pool | did not significantly alter YWP1 expression | Neither Core 1 nor Core 2 showed toxic effects | upregulated YWP1 expression at 0.1% (w/v) to a similar degree as the intact mucin pool |
| CO[C@H]1O[C@H](CO[C@@H]2O[C@H](CO)[C@@H](O)[C@H](O)[C@H]2NC(C)=O)[C@H](O)[C@H](O[C@@H]2O[C@H](CO)[C@H](O)[C@H](O)[C@H]2O[C@@H]2O[C@@H](C)[C@@H](O)[C@@H](O)[C@@H]2O)[C@H]1NC(C)=O [Core 2+fucose, Methyl α-L-fucopyranosyl-(1→2)-β-D-galactopyranosyl-(1→3)-[2-acetamido-2-deoxy-β-D-glucopyranosyl-(1→6)]-2-acetamido-2-deoxy-α-D-galactopyranoside] |  |  | did not measurably alter | downregulating ECE1 | transcriptionally upregulated YWP1 |  |  |  |  |
| CO[C@H]1O[C@H](CO[C@@H]2O[C@H](CO)[C@@H](O[C@@H]3O[C@H](CO)[C@H](O)[C@H](O)[C@H]3O)[C@H](O)[C@H]2NC(C)=O)[C@H](O)[C@H](O[C@@H]2O[C@H](CO)[C@H](O)[C@H](O)[C@H]2O)[C@H]1NC(C)=O [Core 2+galactose, Methyl β-D-galactopyranosyl-(1→4)-2-acetamido-2-deoxy-β-D-glucopyranosyl-(1→6)-[β-D-galactopyranosyl-(1→3)]-2-acetamido-2-deoxy-α-D-galactopyranoside] | most potently blocked filamentation | strongest suppression | did not significantly alter Core 2 activity | downregulating ECE1 | transcriptionally upregulated YWP1 |  |  |  |  |
| CO[C@H]1O[C@H](CO[C@@H]2O[C@H](CO)[C@@H](O)[C@H](O)[C@H]2NC(C)=O)[C@H](O)[C@H](O[C@@H]2O[C@H](CO)[C@H](O)[C@H](O)[C@H]2O)[C@H]1NC(C)=O [Core 2, Methyl β-D-galactopyranosyl-(1→3)-[2-acetamido-2-deoxy-β-D-glucopyranosyl-(1→6)]-2-acetamido-2-deoxy-α-D-galactopyranoside] |  |  |  |  |  | suppressed ECE1 expression at 0.1% and 0.4%, albeit less strongly than the mucin glycan pool | did not significantly alter YWP1 expression | Neither Core 1 nor Core 2 showed toxic effects | upregulated YWP1 expression at 0.1% (w/v) to a similar degree as the intact mucin pool |
